US20230312605A1, “PYRROLO[2,1-F][1,2,4]TRIAZINES AND PREPARATION AND USES THEREOF” (BioSplice Therapeutics, Inc., priority 2021, published 2023)

Molecular target: recombinant DYRK1A kinase (Homo sapiens (Human), UniProt Q13627)
Experiment: DYRK1A kinase assay (Ser/Thr 18 peptide Z-lyte FRET assay)
Format: biochemical
Conditions: recombinant DYRK1A 0.25 µg/mL, ATP 15 µM, Ser/Thr peptide 18 4 µM, one hour at room temperature; table head prints EC50, method says IC50
Description: Representative compounds were screened using the assay procedure for DYRK1A kinase activity as described below.
Each compound was dissolved in DMSO as a 10 mM stock and used to prepare compound source plates. Serial dilution (1:3, 11-point dose-response curves from 10 µM to 0.00016 µM) and compound transfer was performed using the ECHO 550 (Labcyte, Sunnyvale, CA) into 1536-well black-walled round bottom plates (Corning).
The DYRK1A kinase assay was run using the Ser/Thr 18 peptide Z-lyte assay kit according to manufacturer’s instructions (Life Technologies- a Division of Thermo-Fisher). This is a non-radioactive assay using fluorescence resonance energy transfer (FRET) between coumarin and fluorescein to detect kinase activity which is represented as a ratio of coumarin emission/fluorescein emission.
Briefly, recombinant DYRK1A kinase, ATP and Ser/Thr peptide 18 were prepared in 1X Kinase buffer to final concentrations of 0.25 µg/mL, 15 µM, and 4 µM respectively. The mixture was allowed to incubate with the representative compounds for one hour at room temperature. All reactions were performed in duplicate. Unphosphorylated (“0% Control”) and phosphorylated (“100% control”) forms of Ser/Thr 18 served as control reactions. Additionally, an 11-point dose-response curve of Staurosporine (1uM top) was run to serve as a positive compound control.
After incubation, Development Reagent A was diluted in Development Buffer then added to the reaction and allowed to further incubate for one hour at room temperature. The plate was read at Ex 400 Em 455 to detect the coumarin signal and Ex 400 Em 520 to measure the signal (EnVision Multilabel Plate Reader, PerkinElmer).
The Emission ratio (Em) was calculated as a ratio of the coumarin (C) emission signal (at 445 nm)/Fluorescein (F) emission signal (at 520 nm). The percent phosphorylation was then calculated using the following formula: [1 — ((Em ratio X F100%)—C100%)/ ((C0%—C100%) + (Em ratio X (F100% - F0%)))]. Dose-response curves were generated, and inhibitory concentration (IC50) values were calculated using non-linear regression curve fit in the Dotmatics’ Studies Software (Bishops Stortford, UK).

| EC50 [nM] | Structure (SMILES) |
| --- | --- |
| 25 | CN(C)[C@H]1CC[C@@H](Nc2ncc3c(-c4ccc5ncccc5c4)ccn3n2)CC1 [Compound 1336, cis-N^1,N^1-Dimethyl-N^4-(5-(quinolin-6-yl)pyrrolo[2,1-f][1,2,4]triazin-2-yl) cyclohexane-1,4-diamine] |
| 5 | COCCO[C@H]1CC[C@H](Nc2ncc3c(-c4cnc5ncccc5c4)ccn3n2)CC1 [Compound 1544, N-(trans-4-(2-Methoxyethoxy)cyclohexyl)-5-(1,8-naphthyridin-3-yl)pyrrolo [2,1-f][1,2,4]triazin-2-amine] |
| 8 | Cc1nc2ccc(-c3ccn4nc(N[C@@H]5CCCOC5)ncc34)nc2n1CC(F)F [Compound 1863, (R)-5-(3-(2,2-Difluoroethyl)-2-methyl-3H-imidazo[4,5-b]pyridin-5-yl)-N-(tetrahydro-2H-pyran-3-yl)pyrrolo[2,1-f][1,2,4]triazin-2-amine] |
| 9 | Cc1nc2ccc(-c3ccn4nc(NC5CCN(CCO)CC5)ncc34)nc2n1CC(F)F [Compound 1852, 2-(4-((5-(3-(2,2-Difluoroethyl)-2-methyl-3H-imidazo[4,5-b]pyridin-5-yl)pyrrolo[2,1-f][1,2,4]triazin-2-yl)amino)piperidin-1-yl)ethan-1-ol] |
| 101 | COC[C@@H](C)Nc1ncc2c(-c3cnc4nccn4c3)ccn2n1 [Compound 223, (R)-5-(Imidazo[1,2-a]pyrimidin-6-yl)-N-(1-methoxypropan-2-yl)pyrrolo[2,1-f][1,2,4]triazin-2-amine] |
| 3 | COCCO[C@H]1C[C@@H](Nc2ncc3c(-c4cnc5ncccc5c4)ccn3n2)C1 [Compound 1522, N-(cis-3-(2-Methoxyethoxy)cyclobutyl)-5-(1,8-naphthyridin-3-yl)pyrrolo [2,1-f][1,2,4]triazin-2-amine] |
| 9 | FC(F)(CNc1ncc2c(-c3cnc4nccn4c3)ccn2n1)C1CC1 [Compound 232, N-(2-Cyclopropyl-2,2-difluoroethyl)-5-(imidazo[1,2-a]pyrimidin-6-yl) pyrrolo[2,1-f][1,2,4]triazin-2-amine] |
| 3 | Cc1nc2ccc(-c3ccn4nc(N[C@H]5CC[C@@H](C(=O)N6CC(F)(F)C6)CC5)ncc34)nc2n1CC(F)F [Compound 1950, (3,3-Difluoroazetidin-1-yl)(cis-4-((5-(3-(2,2-difluoroethyl)-2-methyl-3H-imidazo[4,5-b]pyridin-5-yl)pyrrolo[2,1-f][1,2,4]triazin-2-yl)amino)cyclohexyl)methanone] |
| 7 | Cc1nc2ccc(-c3ccn4nc(NC5CCN(C(=O)C6CCC(F)(F)CC6)CC5)ncc34)nc2n1CC(F)F [Compound 1953, (4,4-difluorocyclohexyl)(4-((5-(3-(2,2-difluoroethyl)-2-methyl-3H-imidazo[4,5-b]pyridin-5-yl)pyrrolo[2,1-f][1,2,4]triazin-2-yl)amino)piperidin-1-yl)methanone] |
| 4 | O[C@H]1C[C@@H](Nc2ncc3c(-c4ccc5ncccc5c4)ccn3n2)C1 [Compound 1723, cis-3-((5-(Quinolin-6-yl)pyrrolo[2,1-f][1,2,4]triazin-2-yl)amino)cyclobutan-1-ol] |
| 7 | CCC(=O)N1CCC(Nc2ncc3c(-c4ccc5nc(C)n(CC(F)F)c5n4)ccn3n2)CC1 [Compound 1858, 1-(4-((5-(3-(2,2-Difluoroethyl)-2-methyl-3H-imidazo[4,5-b]pyridin-5-yl)pyrrolo[2,1-f][1,2,4]triazin-2-yl)amino)piperidin-1-yl)propan-1-one] |
| 73 | CC(F)(F)CNc1ncc2c(-c3ccc4nccn4c3)ccn2n1 [Compound 4, N-(2,2-Difluoropropyl)-5-(imidazo [1,2-a]pyridin-6-yl)pyrrolo[2,1-f][1,2,4] triazin-2-amine] |
| 1 | CC(=O)N[C@]1(C)C[C@@H](Nc2ncc3c(-c4ccc5ncccc5c4)ccn3n2)C1 [Compound 1980] |
| 27 | CCn1c(C)nc2ccc(-c3ccn4nc(NCC(C)(C)F)ncc34)nc21 [Compound 926, 5-(3-Ethyl-2-methyl-3H-imidazo[4,5-b]pyridin-5-yl)-N-(2-fluoro-2-methylpropyl)pyrrolo[2,1-f][1,2,4]triazin-2-amine] |
| 6 | CO[C@H]1C[C@@H](Nc2ncc3c(-c4ccc5nccnc5c4)ccn3n2)C1 [Compound 1375, N-(cis-3-Methoxycyclobutyl)-5-(quinoxalin-6-yl)pyrrolo[2,1-f][1,2,4]triazin-2-amine] |
| 9 | Cc1nc2ccc(-c3ccn4nc(N[C@H]5CC[C@@](C)(O)CC5)ncc34)nc2n1CC(F)(F)F [Compound 1868, cis-1-Methyl-4-((5-(2-methyl-3-(2,2,2-trifluoroethyl)-3H-imidazo[4,5-b]pyridin-5-yl)pyrrolo[2,1-f] [1,2,4]triazin-2-yl)amino)cyclohexan-1-ol] |
| 6 | Cc1nc2ccc(-c3ccn4nc(N[C@@H]5CN(C)C[C@H]5F)ncc34)nc2n1CC(F)F [Compound 1902] |
| 5 | Cc1nc2ccc(-c3ccn4nc(N[C@H]5CC[C@@H](CN6CCOCC6)CC5)ncc34)nc2n1CC(F)F [Compound 1842, 5-(3-(2,2-difluoroethyl)-2-methyl-3H-imidazo[4,5-b]pyridin-5-yl)-N-(cis-4-(morpholinomethyl)cyclohexyl)pyrrolo[2,1-f][1,2,4]triazin-2-amine] |
| 14 | C[C@]1(O)CC[C@H](Nc2ncc3c(-c4ccc5nnn(CC(F)F)c5c4)ccn3n2)CC1 [Compound 1890, trans-4-((5-(1-(2,2-Difluoroethyl)-1H-benzo[d][1,2,3]triazol-6-yl)pyrrolo [2,1-f][1,2,4]triazin-2-yl)amino)-1-methylcyclohexan-1-o1] |
| 9 | Cc1nc2ncc(-c3ccn4nc(NC5CCC(F)(F)CC5)ncc34)cc2n1Cc1nnc([C@@H](C)F)o1 [Compound 1915, (R)-N-(4,4-Difluorocyclohexyl)-5-(1-((5-(1-fluoroethyl)-1,3,4-oxadiazol-2-yl)methyl)-2-methyl-1H-imidazo[4,5-b]pyridin-6-yl)pyrrolo[2,1-f][1,2,4]triazin-2-amine] |
| 14 | CO[C@H]1C[C@H](Nc2ncc3c(-c4ccc5nccnc5c4)ccn3n2)C1 [Compound 1376, N-(trans-3-Methoxycyclobutyl)-5-(quinoxalin-6-yl)pyrrolo[2,1-f][1,2,4] triazin-2-amine] |
| 6 | Cc1nc2ccc(-c3ccn4nc(N[C@H]5CCN(C)C[C@@H]5F)ncc34)nc2n1CC(F)F [Compound 1855, 5-(3-(2,2-Difluoroethyl)-2-methyl-3H-imidazo[4,5-b]pyridin-5-yl)-N-((3S,4S)-3-fluoro-1-methylpiperidin-4-yl)pyrrolo[2,1-f][1,2,4]triazin-2-amine] |
| 16 | Cc1nc2ccc(-c3ccn4nc(N[C@H](C)CO)ncc34)nc2n1CC(F)F [Compound 1830, (R)-2-((5-(3-(2,2-Difluoroethyl)-2-methyl-3H-imidazo[4,5-b]pyridin-5-yl)pyrrolo[2,1-f][1,2,4]triazin-2-yl)amino)propan-1-ol] |
| 43 | Cc1nc2ccc(-c3ccn4nc(NCC(C)(C)F)ncc34)nc2n1C [Compound 855, 5-(2,3-Dimethyl-3H-imidazo[4,5-b]pyridin-5-yl)-N-(2-fluoro-2-methylpropyl)pyrrolo[2,1-f][1,2,4]triazin-2-amine] |
| 5 | COCCO[C@H]1CC[C@H](Nc2ncc3c(-c4ccc5nc(C)n(CC(F)F)c5n4)ccn3n2)CC1 [Compound 1118, 5-(3-(2,2-Difluoroethyl)-2-methyl-3H-imidazo[4,5-b]pyridin-5-yl)-N-(trans-4-(2-methoxyethoxy)cyclohexyl)pyrrolo[2,1-f][1,2,4]triazin-2-amine] |
| 6 | Cc1nc2ccc(-c3ccn4nc(N[C@H]5CC[C@@H](O)CC5)ncc34)nc2n1CC(F)F [Compound 1109, cis-4-((5-(3-(2,2-Difluoroethyl)-2-methyl-3H-imidazo[4,5-b]pyridin-5-yl)pyrrolo[2,1-f][1,2,4]triazin-2-yl)amino)cyclohexan-1-ol] |
| 7 | CC(=O)N1C[C@@H](F)[C@@H](Nc2ncc3c(-c4ccc5nc(C)n(CC(F)F)c5n4)ccn3n2)C1 [Compound 1940, 1-((3S,4R)-3-((5-(3-(2,2-Difluoroethyl)-2-methyl-3H-imidazo[4,5-b]pyridin-5-yl)pyrrolo[2,1-f] [1,2,4]triazin-2-yl)amino)-4-fluoropyrrolidin-1-yl)ethan-1-one] |
| 6 | CC(C)CNc1ncc2c(-c3cnc4nccn4c3)ccn2n1 [Compound 215, 5-(Imidazo[1,2-a]pyrimidin-6-yl)-N-isobutylpyrrolo[2,1-f][1,2,4]triazin-2-amine] |
